# Results reported in ChEMBL document CHEMBL4118136, “The photodynamic activity of 131-[2'-(2-pyridyl)ethylamine] chlorin e6 photosensitizer in human esophageal cancer” (Bioorg Med Chem Lett, 2018).
# Activity calls are given as the source filed them. The calls are words filed in the database; no cut-off is given here.
# Assays:
# ECa-109 cell line [1] = assay: Cytotoxicity in human ECA109 cells assessed as reduction in cell viability incubated for 24 hrs followed by irradiation with 0.5 to 2.5 J/cm2 red light by MTT assay; assay type: functional, cell-based
# [2] = Induction of singlet oxygen generation assessed as singlet oxygen quantum yield by measuring DPBF chemical oxidation in DMF solution incubated for 10 to 30 secs under irradiation by UV-Vis spectrophotometry; assay type: functional
# ECa-109 cell line [3] = assay: Induction of apoptosis in human ECA109 cells assessed as viable cells level measured 2 hrs after 2 J/cm2 irradiation by Annexin V and propidium iodide staining based flow cytometry (reference value: 99.99%); assay type: functional
# ECa-109 cell line [4] = assay: Induction of apoptosis in human ECA109 cells assessed as necrotic cells level in absence of irradiation by Annexin V and propidium iodide staining based flow cytometry; assay type: cell-based
# ECa-109 cell line [5] = assay: Induction of apoptosis in human ECA109 cells assessed as early apoptosis cells level measured 8 hrs after 2 J/cm2 irradiation by Annexin V and propidium iodide staining based flow cytometry; assay type: functional
# ECa-109 cell line [6] = assay: Induction of apoptosis in human ECA109 cells assessed as late apoptotic cells level in absence of irradiation by Annexin V and propidium iodide staining based flow cytometry (reference value: 0.01%); assay type: cell-based
# ECa-109 cell line [7] = assay: Induction of apoptosis in human ECA109 cells assessed as necrosis cells level measured 4 hrs after 2 J/cm2 irradiation by Annexin V and propidium iodide staining based flow cytometry; assay type: functional
# ECa-109 cell line [8] = assay: Induction of apoptosis in human ECA109 cells assessed as late apoptosis cells level measured 2 hrs after 2 J/cm2 irradiation by Annexin V and propidium iodide staining based flow cytometry (reference value: 0.01%); assay type: functional
# ECa-109 cell line [9] = assay: Antitumor activity against human ECA109 cells xenografted in Balb/C nude mouse assessed as reduction in tumor cell per unit area at 2 mg/kg, iv followed by irradiation at 100 J/cm2 and measured after 13 days by hematoxylin-eosin staining based light microscopy relative to untreated control; assay type: functional, organism-based
# ECa-109 cell line [10] = assay: Cytotoxicity in human ECA109 cells assessed as reduction in cell viability incubated for 24 hrs followed by irradiation with 1 J/cm2 red light by MTT assay; assay type: functional, cell-based; settings: ECa-109, light or radiation study
# ECa-109 cell line [11] = assay: Induction of apoptosis in human ECA109 cells assessed as early apoptosis cells level measured 4 hrs after 2 J/cm2 irradiation by Annexin V and propidium iodide staining based flow cytometry; assay type: functional
# ECa-109 cell line [12] = assay: Induction of apoptosis in human ECA109 cells assessed as early apoptotic cells level in absence of irradiation by Annexin V and propidium iodide staining based flow cytometry; assay type: cell-based
# ECa-109 cell line [13] = assay: Induction of apoptosis in human ECA109 cells assessed as early apoptosis cells level measured 2 hrs after 2 J/cm2 irradiation by Annexin V and propidium iodide staining based flow cytometry; assay type: functional
# ECa-109 cell line [14] = assay: Induction of apoptosis in human ECA109 cells assessed as late apoptosis cells level measured 4 hrs after 2 J/cm2 irradiation by Annexin V and propidium iodide staining based flow cytometry (reference value: 0.01%); assay type: functional
# ECa-109 cell line [15] = assay: Induction of apoptosis in human ECA109 cells assessed as reduction in pro-caspase-3 activity measured 2 hrs after 2 J/cm2 irradiation; assay type: functional, cell-based
# ECa-109 cell line [16] = assay: Induction of apoptosis in human ECA109 cells assessed as viable cells level measured 4 hrs after 2 J/cm2 irradiation by Annexin V and propidium iodide staining based flow cytometry (reference value: 99.99%); assay type: functional
# [17] = Induction of singlet oxygen generation assessed as DPBF chemical oxidation in DMF solution incubated for 10 to 30 secs under irradiation by UV-Vis spectrophotometry; assay type: functional; settings: TDE = time-dependent effect
# [18] = Dark toxicity in human ECA109 cells assessed as reduction in cell viability at 0.1 to 0.9 uM incubated for 24 hrs under dark conditions by MTT assay; assay type: cell-based; settings: eca-109, 24 h
# ECa-109 cell line [19] = assay: Cytotoxicity in human ECA109 cells assessed as reduction in cell viability incubated for 24 hrs followed by irradiation with 2 J/cm2 red light by MTT assay; assay type: functional, cell-based; settings: ECa-109, light or radiation study
# ECa-109 cell line [20] = assay: Cytotoxicity in human ECA109 cells assessed as reduction in cell viability incubated for 24 hrs followed by irradiation with 2.5 J/cm2 red light by MTT assay; assay type: functional, cell-based; settings: ECa-109, light or radiation study
# ECa-109 cell line [21] = assay: Antitumor activity against human ECA109 cells xenografted in Balb/C nude mouse assessed as inhibition of tumor growth at 2 mg/kg, iv followed by irradiation at 100 J/cm2 and measured after 13 days relative to untreated control; assay type: functional; settings: ECa-109, light or radiation study, 312 h, read-out: TGI
# ECa-109 cell line [22] = assay: Induction of apoptosis in human ECA109 cells assessed as late apoptosis cells level measured 8 hrs after 2 J/cm2 irradiation by Annexin V and propidium iodide staining based flow cytometry (reference value: 0.01%); assay type: functional
# [23] = Induction of singlet oxygen generation assessed as DPBF chemical oxidation in DMF solution incubated for 10 to 30 secs under irradiation by UV-Vis spectrophotometry relative to mTHPC; assay type: functional
# ECa-109 cell line [24] = assay: Antitumor activity against human ECA109 cells xenografted in Balb/C nude mouse assessed as increase in nuclear fission level at 2 mg/kg, iv followed by irradiation at 100 J/cm2 and measured after 13 days by hematoxylin-eosin staining based light microscopy relative to untreated control; assay type: functional, organism-based
# ECa-109 cell line [25] = assay: Induction of apoptosis in human ECA109 cells assessed as necrosis cells level measured 2 hrs after 2 J/cm2 irradiation by Annexin V and propidium iodide staining based flow cytometry; assay type: functional
# ECa-109 cell line [26] = assay: Induction of apoptosis in human ECA109 cells xenografted in Balb/C nude mouse at 2 mg/kg, iv followed by irradiation at 100 J/cm2 and measured after 13 days by TUNEL staining based light microscopy relative to untreated control; assay type: functional
# [27] = Drug uptake in human ECA109 cells at 0.5 uM incubated for 2 to 24 hrs by fluorescence spectrometry; assay type: ADME, cell-based; settings: eca-109, 0.5 µM, TDE = time-dependent effect
# ECa-109 cell line [28] = assay: Antitumor activity against human ECA109 cells xenografted in Balb/C nude mouse assessed as increase in cell differentiation at 2 mg/kg, iv followed by irradiation at 100 J/cm2 and measured after 13 days by hematoxylin-eosin staining based light microscopy relative to untreated control; assay type: functional, organism-based
# [29] = Drug accumulation in endoplasmic reticulum of human ECA109 cells at 0.9 uM incubated for 4 hrs by ER-green[DiOC6(3)] dye based confocal microscopy; assay type: ADME, subcellular; settings: eca-109, 4 h
# ECa-109 cell line [30] = assay: Cytotoxicity in human ECA109 cells assessed as reduction in cell viability incubated for 24 hrs followed by irradiation with 0.5 J/cm2 red light by MTT assay; assay type: functional, cell-based; settings: ECa-109, light or radiation study
# ECa-109 cell line [31] = assay: Induction of apoptosis in human ECA109 cells assessed as viable cells level measured 8 hrs after 2 J/cm2 irradiation by Annexin V and propidium iodide staining based flow cytometry (reference value: 99.99%); assay type: functional
# [32] = Induction of apoptosis in human ECA109 cells assessed as viable cells level in absence of irradiation by Annexin V and propidium iodide staining based flow cytometry (reference value: 99.99%); assay type: cell-based, ECa-109; settings: read-out: Activity
# ECa-109 cell line [33] = assay: Induction of apoptosis in human ECA109 cells assessed as necrosis cells level measured 8 hrs after 2 J/cm2 irradiation by Annexin V and propidium iodide staining based flow cytometry; assay type: functional
# ECa-109 cell line [34] = assay: Antitumor activity against human ECA109 cells xenografted in Balb/C nude mouse assessed as increase in megakaryocytes level at 2 mg/kg, iv followed by irradiation at 100 J/cm2 and measured after 13 days by hematoxylin-eosin staining based light microscopy relative to untreated control; assay type: functional, organism-based
# ECa-109 cell line [35] = assay: Cytotoxicity in human ECA109 cells assessed as reduction in cell viability incubated for 24 hrs followed by irradiation with 1.5 J/cm2 red light by MTT assay; assay type: functional, cell-based; settings: ECa-109, light or radiation study
# [36] = Drug accumulation in lysosome of human ECA109 cells at 0.9 uM incubated for 4 hrs by Lyso tracker blue green dye based confocal microscopy; assay type: ADME, subcellular; settings: eca-109, 4 h
# [37] = Drug accumulation in mitochondria of human ECA109 cells at 0.9 uM incubated for 4 hrs by mitotracker green dye based confocal microscopy; assay type: ADME; settings: eca-109, 4 h
smiles,measurement,setting,value
C=Cc1c(C)c2cc3nc(c(CC(=O)OC)c4[nH]c(cc5nc(cc1[nH]2)C(C)=C5CC)c(C)c4C(=O)NCCc1ccccn1)[C@@H](CCC(=O)OC)[C@@H]3C,Activity,ECa-109 cell line [1],Dose-dependent effect
same,Activity index,[2],0.98
same,Activity,ECa-109 cell line [3],15.19%
same,Activity,ECa-109 cell line [4],2.3%
same,Activity,ECa-109 cell line [5],6.01%
same,Activity,ECa-109 cell line [6],4.7%
same,Activity,ECa-109 cell line [7],7.87%
same,Activity,ECa-109 cell line [8],68.34%
same,Activity,ECa-109 cell line [9],Active
same,IC50,ECa-109 cell line [10],640 nM
same,Activity,ECa-109 cell line [11],8.1%
same,Activity,ECa-109 cell line [12],3.16%
same,Activity,ECa-109 cell line [13],7.15%
same,Activity,ECa-109 cell line [14],70.93%
same,Activity,ECa-109 cell line [15],Active
same,Activity,ECa-109 cell line [16],13.1%
same,Activity,[17],Tde
same,Activity,[18],Non-Toxic
same,IC50,ECa-109 cell line [19],380 nM
same,IC50,ECa-109 cell line [20],300 nM
same,inhibition in vivo at 2 mg/kg,ECa-109 cell line [21],92%
same,Activity,ECa-109 cell line [22],85.78%
same,fold change (FC),[23],0.0193
same,Activity,ECa-109 cell line [24],Active
same,Activity,ECa-109 cell line [25],9.33%
same,Activity,ECa-109 cell line [26],40%
same,Drug uptake,[27],Tde
same,Activity,ECa-109 cell line [28],Active
same,Drug uptake,[29],Active
same,IC50,ECa-109 cell line [30],1330 nM
same,Activity,ECa-109 cell line [31],4.92%
same,viability,[32],89.8%
same,Activity,ECa-109 cell line [33],3.29%
same,Activity,ECa-109 cell line [34],Active
same,IC50,ECa-109 cell line [35],430 nM
same,Drug uptake,[36],Active
same,Drug uptake,[37],Active
Oc1cccc(-c2c3nc(c(-c4cccc(O)c4)c4ccc([nH]4)c(-c4cccc(O)c4)c4nc(c(-c5cccc(O)c5)c5ccc2[nH]5)CC4)C=C3)c1 [TEMOPORFIN],inhibition in vivo at 2 mg/kg,ECa-109 cell line [21],79%
